Patent publication US7879848B2, “Dipeptidyl Peptidase-IV inhibiting compounds, method of preparing the same, and pharmaceutical compositions containing the same as an active agent” (LG Life Sciences, Ltd., priority 2005, dated 2011)

Each compound was assayed against T1, Dipeptidyl Peptidase-IV (DPP-IV) (Homo sapiens, UniProt P27487) (assay: Measurement of DPP-IV Activity-Inhibiting Ability (fluorescent substrate Ac-Gly-Pro-AFC)). Settings: 25° C., 50 mmol HEPES (pH 7.4), DP-IV 7.1 nM, enzyme reaction for 1 hour.
T1 construct: made in house
T1 sequence (P27487 whole entry): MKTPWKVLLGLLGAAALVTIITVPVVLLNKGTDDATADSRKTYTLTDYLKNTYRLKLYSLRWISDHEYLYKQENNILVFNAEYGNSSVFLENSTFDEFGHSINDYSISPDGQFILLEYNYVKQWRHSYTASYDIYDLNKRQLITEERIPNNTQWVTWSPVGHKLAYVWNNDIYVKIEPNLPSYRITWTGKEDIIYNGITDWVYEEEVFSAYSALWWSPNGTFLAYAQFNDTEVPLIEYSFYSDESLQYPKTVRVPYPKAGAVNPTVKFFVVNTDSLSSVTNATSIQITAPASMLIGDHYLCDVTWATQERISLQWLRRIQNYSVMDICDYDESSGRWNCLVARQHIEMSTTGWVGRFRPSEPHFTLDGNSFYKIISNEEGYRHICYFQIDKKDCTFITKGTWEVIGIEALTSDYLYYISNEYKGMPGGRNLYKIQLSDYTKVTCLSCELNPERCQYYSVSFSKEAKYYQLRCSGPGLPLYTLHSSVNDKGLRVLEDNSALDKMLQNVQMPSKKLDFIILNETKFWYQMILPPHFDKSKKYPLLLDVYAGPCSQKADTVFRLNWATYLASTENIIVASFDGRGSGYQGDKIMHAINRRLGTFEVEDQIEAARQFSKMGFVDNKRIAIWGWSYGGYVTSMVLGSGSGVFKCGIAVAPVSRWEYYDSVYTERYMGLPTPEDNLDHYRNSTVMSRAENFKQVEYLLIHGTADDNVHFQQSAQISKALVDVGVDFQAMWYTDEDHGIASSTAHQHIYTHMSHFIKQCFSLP
Type: biochemical
Text: Dipeptidyl Peptidase-IV (DPP-IV), known as serine protease, was obtained by a modification of the known method (Tanaka T. et al, Proc. Natl. Acad. Sci. USA, (1994) 91, 3082-3086), which comprises cloning, purification by use of Baculo-Virus and activation steps. DPP-IV was used to test the pharmaceutical efficacy of candidate inhibitors as follows. The cloned DP-IV was expressed in Baculo-Virus, which was purified by nickel column and then subjected to dialysis. The inhibitors synthesized in Examples were tested to determine the binding activity there of using a fluorescent substrate, Ac-Gly-Pro-AFC. Enzyme reactions were conducted for various concentrations of inhibitors, using 100 µM Ac-Gly-Pro-AFC at 25° C. in a buffer solution containing 50 mmol HEPES (pH 7.4), with the concentration of DP-IV being 7.1 nM. […] As the fluorescent spectrometer, Spectra MAX GeminiXS fluorescent spectrometer from Molecular Device Co. was used and the excitation frequency and emission frequency were set to 400 nm and 505 nm, respectively.

IC50 [nM] | SMILES
236 | N[C@@H](CC(=O)N1CCc2sc(C3CCOCC3)nc2C1)CN1CC(F)(F)CCC1=O [Ex. 49, 1-{(2S)-2-amino-4-oxo-4-[2-(tetrahydro-2H-pyran-4-yl)-6,7-dihydro[1,3]thiazolo[4,5, c]pyridin-5(4H)-yl]butyl}-5,5-difluoropiperidin-2-one]
5 | C[C@@H]1CCC(=O)N(C[C@@H](N)CC(=O)N2CCc3c(nc(-c4ccco4)nc3C(F)(F)F)C2)C1 [Ex. 64, (5R)-1-{(2S)-2-amino-4-[2-(2-furyl)-4-(trifluoromethyl)-5,8-dihydropyrido[3,4-d]pyrimidin-7(6H)-yl]-4-oxobutyl}-5-methylpiperidin-2-one]
19 | CCCc1nc2c(c(C(F)(F)F)n1)CCN(C(=O)C[C@H](N)CN1C[C@H](C)CCC1=O)C2 [Ex. 99, (5R)-1-{(2S)-2-amino-4-oxo-4-[2-propyl-4-(trifluoromethyl)-5,8-dihydropyrido[3,4-d]pyrimidin-7(6H)-yl]butyl}-5-methylpiperidin-2-one]
34 | C[C@@H]1CCC(=O)N(C[C@@H](N)CC(=O)N2CCc3c(nc(-c4ccc(F)cc4)nc3C(F)(F)F)C2)C1 [Ex. 34, (5R)-1-{(2S)-2-amino-4-[2-(4-fluorophenyl)-4-(trifluoromethyl)-5,8-dihydropyrido[3,4-d]pyrimidin-7(6H)-yl]-4-oxobutyl}-5-methylpiperidin-2-one]
38 | C[C@H]1CN(C[C@@H](N)CC(=O)N2CCc3c(nc(C(F)(F)F)nc3C(F)(F)F)C2)C(=O)CO1 [Ex. 84]
61 | C[C@@H]1CCC(=O)N(C[C@@H](N)CC(=O)N2CCc3c(nc(-c4ccsc4)nc3C(F)(F)F)C2)C1 [Ex. 60, (5R)-1-{(2S)-2-amino-4-oxo-4-[2-(3-thienyl)-4-(trifluoromethyl)-5,8-dihydropyrido[3,4-d]pyrimidin-7(6H)-yl]butyl}-5-methylpiperidin-2-one]
27 | CCc1nc2c(c(C(F)(F)F)n1)CCN(C(=O)C[C@H](N)CN1C[C@H](C)OCC1=O)C2 [Ex. 73, (6S)-4-{(2S)-2-amino-4-[2-ethyl-4-(trifluoromethyl)-5,8-dihydropyrido[3,4-d]pyrimidin-7(6H)-yl]-4-oxobutyl}-6-methylmorpholine-3-one]
55 | N[C@@H](CC(=O)N1CCc2c(nc(-c3ccoc3)nc2C(F)(F)F)C1)CN1CC(C(F)(F)F)CC1=O (stereo partly drawn) [Ex. 109, 1-{(2S)-2-amino-4-[2-(3-furyl)-4-(trifluoromethyl)-5,8-dihydropyrido[3,4-d]pyrimidin-7(6H)-yl]-4-oxobutyl}-4-(trifluoromethyl)pyrrolidin-2-one]
141 | CC1CCN(C[C@@H](N)CC(=O)N2CCn3c(nnc3C(F)(F)F)C2)C(=O)C1 (stereo partly drawn) [Ex. 10, 1-[2S-amino-4-oxo-4-(3-trifluoromethyl-5,6-dihydro-8H-[1,2,4]triazolo[4,3-a]pyrazin-7-yl)-butyl]-4-methyl-piperidin-2-one]
7 | C[C@@H]1CCC(=O)N(C[C@@H](N)CC(=O)N2CCc3c(nc(C(F)(F)C(F)(F)F)nc3C(F)(F)F)C2)C1 [Ex. 96, (5R)-1-{(2S)-2-amino-4-oxo-4-[2-(pentafluoroethyl)-4-(trifluoromethyl)-5,8-dihydropyrido[3,4-d]pyrimidin-7(6H)-yl]butyl}-5-methylpiperidin-2-one]
16 | CC(C)c1nc2c(c(C(F)(F)F)n1)CCN(C(=O)C[C@H](N)CN1C[C@H](C)CCC1=O)C2 [Ex. 75, 1-{(2S)-2-amino-4-[2-isopropyl-4-(trifluoromethyl)-5,8-dihydropyrido[3,4-d]pyrimidin-7(6H)-yl]-4-oxobutyl}-5-methylpiperidin-2-one]
16 | C[C@@H]1CCC(=O)N(C[C@@H](N)CC(=O)N2CCc3c(nc(-c4ccoc4)nc3C(F)(F)F)C2)C1 [Ex. 66, (5R)-1-{(2S)-2-amino-4-[2-(3-furyl)-4-(trifluoromethyl)-5,8-dihydropyrido[3,4-d]pyrimidin-7(6H)-yl]-4-oxobutyl}-5-methylpiperidin-2-one]
21 | N[C@@H](CC(=O)N1CCc2c(nc(-c3ccc(F)cc3)nc2C(F)(F)F)C1)CN1CC(F)(F)CCC1=O [Ex. 30, 1-{(2S)-2-amino-4-[2-(4-fluorophenyl)-4-(trifluoromethyl)-5,8-dihydropyrido[3,4-d]pyrimidin-7(6H)-yl]-4-oxobutyl}-5,5-difluoropiperidin-2-one]
10 | C[C@@H]1CCC(=O)N(C[C@@H](N)CC(=O)N2CCc3c(nc(C4CCC4)nc3C(F)(F)F)C2)C1 [Ex. 112, (5R)-1-{(2S)-2-amino-4-[2-cyclobutyl-4-(trifluoromethyl)-5,8-dihydropyrido[3,4-d]pyrimidin-7(6H)-yl]-4-oxobutyl}-5-methylpiperidin-2-one]
12 | N[C@@H](CC(=O)N1CCc2c(nc(-c3ccco3)nc2C(F)(F)F)C1)CN1CC(F)(F)CCC1=O [Ex. 65, 1-{(2S)-2-amino-4-[2-(2-furyl)-4-(trifluoromethyl)-5,8-dihydropyrido[3,4-d]pyrimidin-7(6H)-yl]-4-oxobutyl}-5,5-difluoropiperidin-2-one]
114 | N[C@@H](CC(=O)N1CCc2sc(C(F)(F)F)nc2C1)CN1CC(F)(F)CCC1=O [Ex. 51, 1-{(2S)-2-amino-4-oxo-4-[2-(trifluoromethyl)-6,7-dihydro[1,3]thiazolo[4,5,c]pyridin-5(4H)-yl]butyl}-5,5-difluoropiperidin-2-one]
94 | C[C@@H]1CN(C[C@@H](N)CC(=O)N2CCn3c(nnc3C(F)(F)F)C2)C(=O)CO1 [Ex. 77, (6R)-4-{(2S)-2-amino-4-oxo-4-[3-(trifluoromethyl)-5,6-dihydro[1,2,4]triazolo[4,3-a]pyrazin-7(8H)-yl]butyl}-6-methylmorpholine-3-one]
9 | N[C@@H](CC(=O)N1CCc2c(nc(C3CC3)nc2C(F)(F)F)C1)CN1CC(F)(F)CCC1=O [Ex. 25, 1-{(2S)-2-amino-4-[2-cyclopropyl-4-(trifluoromethyl)-5,8-dihydropyrido[3,4-d]pyrimidin-7(6H)-yl]-4-oxobutyl}-5,5-difluoropiperidin-2-one]
10 | N[C@@H](CC(=O)N1CCc2c(nc(-c3ccoc3)nc2C(F)(F)F)C1)CN1CC(F)(F)CCC1=O [Ex. 67, 1-{(2S)-2-amino-4-[2-(3-furyl)-4-(trifluoromethyl)-5,8-dihydropyrido[3,4-d]pyrimidin-7(6H)-yl]-4-oxobutyl}-5,5-difluoropiperidin-2-one]
48 | C[C@H]1CN(C[C@@H](N)CC(=O)N2CCc3c(ncnc3C(F)(F)F)C2)C(=O)CO1 [Ex. 88, (6S)-4-{(2S)-2-amino-4-oxo-4-[4-(trifluoromethyl)-5,8-dihydropyrido[3,4-d]pyrimidin-7(6H)-yl]butyl}-6-methylmorpholine-3-one]
16 | Cc1nc2c(c(C(F)(F)F)n1)CCN(C(=O)C[C@H](N)CN1CC(F)(F)CCC1=O)C2 [Ex. 85, 1-{(2S)-2-amino-4-[2-methyl-4-(trifluoromethyl)-5,8-dihydropyrido[3,4-d]pyrimidin-7(6H)-yl]-4-oxobutyl}-5,5-difluoropiperidin-2-one]
48 | N[C@@H](CC(=O)N1CCc2c(nc(-c3ccncc3)nc2C(F)(F)F)C1)CN1CC(F)(F)CCC1=O [Ex. 57, 1-{(2S)-2-amino-4-oxo-4-[2-pyridin-4-yl-4-(trifluoromethyl)-5,8-dihydropyrido[3,4-d]pyrimidin-7(6H)-yl]butyl}-5,5-difluoropiperidin-2-one]
55 | N[C@@H](CC(=O)N1CCc2c(nc(-c3ccc[nH]3)nc2C(F)(F)F)C1)CN1CC(F)(F)CCC1=O [Ex. 69, 1-{(2S)-2-amino-4-oxo-4-[2-(1H-pyrrol-2-yl)-4-(trifluoromethyl)-5,8-dihydropyrido[3,4-d]pyrimidin-7(6H)-yl]butyl}-5,5-difluoropiperidin-2-one]
35 | C[C@@H]1CCC(=O)N(C[C@@H](N)CC(=O)N2CCn3c(nnc3C(F)(F)F)C2)C1 [Ex. 12, 1-[2S-amino-4-oxo-4-(3-trifluoromethyl-5,6-dihydro-8H-[1,2,4]triazolo[4,3-a]pyrazin-7-yl)-butyl]-5R-methyl-piperidin-2-one]
22 | N[C@@H](CC(=O)N1CCc2sc(-c3ccc(F)cc3)nc2C1)CN1CC(F)(F)CCC1=O [Ex. 46, 1-{(2S)-2-amino-4-[2-(4-fluorophenyl)-6,7-dihydro[1,3]thiazolo[4,5,c]pyridin-5(4H)-yl]-4-oxobutyl}-5,5-difluoropiperidin-2-one]
378 | N[C@@H](CC(=O)N1CCn2c(nnc2C(F)(F)F)C1)CN1CC(C(F)(F)F)CC1=O (stereo partly drawn) [Ex. 13, 1-[2S-amino-4-oxo-4-(3-trifluoromethyl-5,6-dihydro-8H-[1,2,4]triazolo[4,3-a]pyrazin-7-yl)-butyl]-4-trifluoromethyl-pyrrolidin-2-one]
26 | CC(C)c1nc2c(c(C(F)(F)F)n1)CCN(C(=O)C[C@H](N)CN1CC(F)(F)CCC1=O)C2 [Ex. 74, 1-{(2S)-2-amino-4-[2-isopropyl-4-(trifluoromethyl)-5,8-dihydropyrido[3,4-d]pyrimidin-7(6H)-yl]-4-oxobutyl}-5,5-difluoropiperidin-2-one]
75 | N[C@@H](CC(=O)N1CCn2c(nnc2C(F)(F)F)C1)CN1CC(F)(F)CCC1=O [Ex. 11, 1-[2S-amino-4-oxo-4-(3-trifluoromethyl-5,6-dihydro-8H-[1,2,4]triazolo[4,3-a]pyrazin-7-yl)-butyl]-5,5-difluoro-piperidin-2-one]
